Patent US9585886B2, “ASK1 inhibiting pyrrolopyrimidine derivatives” (CALCHAN LIMITED, priority 2010, dated 2017)

Assays:
human ASK1 kinase = target: T1, human ASK1 kinase (Homo sapiens, UniProt Q99683); test: Determination of ASK1 inhibitor activity (IMAP FP assay of example 52 or AlphaLISA assay of example 53)
T1 sequence (Q99683 1-1374): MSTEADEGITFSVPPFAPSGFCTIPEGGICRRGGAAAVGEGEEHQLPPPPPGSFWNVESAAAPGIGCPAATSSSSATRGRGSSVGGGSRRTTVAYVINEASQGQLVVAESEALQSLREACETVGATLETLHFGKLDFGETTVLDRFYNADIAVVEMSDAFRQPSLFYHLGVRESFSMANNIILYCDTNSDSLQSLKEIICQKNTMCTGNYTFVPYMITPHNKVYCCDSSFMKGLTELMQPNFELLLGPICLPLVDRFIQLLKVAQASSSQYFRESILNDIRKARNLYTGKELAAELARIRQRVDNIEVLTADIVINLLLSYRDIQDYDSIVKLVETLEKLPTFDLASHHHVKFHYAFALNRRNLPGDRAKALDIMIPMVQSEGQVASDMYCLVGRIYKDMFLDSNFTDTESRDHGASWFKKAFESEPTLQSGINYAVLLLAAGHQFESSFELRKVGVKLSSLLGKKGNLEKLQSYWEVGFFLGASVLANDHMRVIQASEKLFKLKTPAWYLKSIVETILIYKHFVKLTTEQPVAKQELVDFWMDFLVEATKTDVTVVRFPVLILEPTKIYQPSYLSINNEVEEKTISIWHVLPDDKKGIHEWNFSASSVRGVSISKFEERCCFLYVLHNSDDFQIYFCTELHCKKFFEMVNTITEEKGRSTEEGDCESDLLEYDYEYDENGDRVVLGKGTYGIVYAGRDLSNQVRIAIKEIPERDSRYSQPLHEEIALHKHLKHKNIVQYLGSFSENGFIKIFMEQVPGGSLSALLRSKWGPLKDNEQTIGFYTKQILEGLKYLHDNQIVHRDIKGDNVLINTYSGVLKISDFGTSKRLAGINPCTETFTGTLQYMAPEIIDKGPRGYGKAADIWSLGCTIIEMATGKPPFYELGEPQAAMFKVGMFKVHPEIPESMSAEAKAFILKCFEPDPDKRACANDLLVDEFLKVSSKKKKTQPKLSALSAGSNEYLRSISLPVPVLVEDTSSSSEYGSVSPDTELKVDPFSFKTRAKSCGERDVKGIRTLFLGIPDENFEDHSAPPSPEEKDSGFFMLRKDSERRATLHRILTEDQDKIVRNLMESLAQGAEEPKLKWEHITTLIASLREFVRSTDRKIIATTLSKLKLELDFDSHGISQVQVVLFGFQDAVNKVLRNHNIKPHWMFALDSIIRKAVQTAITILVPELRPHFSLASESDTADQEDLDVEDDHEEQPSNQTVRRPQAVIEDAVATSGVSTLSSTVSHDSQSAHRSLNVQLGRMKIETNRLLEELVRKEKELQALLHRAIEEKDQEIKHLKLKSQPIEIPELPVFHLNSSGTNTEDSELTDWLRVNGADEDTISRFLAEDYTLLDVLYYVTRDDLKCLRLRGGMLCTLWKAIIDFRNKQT

[1] = test system: CCI-induced mechanical allodynia; settings: rat CCI model
[2] = test system: FCA-induced inflammatory mechanical hypersensitivity

| IC50 (human ASK1 kinase) [µM] | Structure (SMILES) | effect on mechanical allodynia caused by nerve injury in the CCI model [1] | effect on inflammatory mechanical hypersensitivity caused by FCA (weightbearing) ([2]; dosed orally 24 hours after FCA injection, at 30 mg/kg) | effect on inflammatory mechanical hypersensitivity (FIG. 2, weightbearing) ([2]; rats, 3 mg/kg po and 30 mg/kg po, 24 hours after intraplantar FCA, measured 1 hour after dosing) |
| --- | --- | --- | --- | --- |
| 25.1 | O=C(NC1CCN(c2nc[nH]c3nccc2-3)CC1)c1ccc(N2CCCC2)cc1 [4-(1-pyrrolidinyl)-N-[1-(1H-pyrrolo[2,3-d]pyrimidin-4-yl)-4-piperidinyl]benzamide] |  |  |  |
|  | Cc1c[nH]c2ncnc(N3CCC(NC(=O)c4ccccc4)CC3)c12 [Example 17] | partially reversed the mechanical allodynia | partially reverse the inflammatory mechanical hypersensitivity | reverses inflammatory mechanical hypersensitivity |
